The values below come from ChEMBL document CHEMBL3886901, “Substituted azoles, antiviral active component, pharmaceutical composition, method for preparation and use thereof” (2016).

pIC50: −log10 of the molar value.

One test can be described thus: Immumoenzymatic Assay: Solutions of the tested compounds in DMEM medium {DMEM) 1x; Source: Cellgro; Catalogue: 10-013-CV} were prepared immediately before use. Eleven serial three fold dilutions with variation of concentrations from 20 nM to 0.2 pM were prepared. In 4 hours after seeding, serial dilutions of the compounds were added to the cells (100 ul to each well). Final concentration of tested compounds was varied from 10 nM to 0.1 pM, and DMSO4 0.5%. If it was necessary, higher concentrations of the disclosed azoles were investigated. Each dilution of the compound was tested on two identical wells. Then the cells were incubated for three days at 37° C./5% CO2 and fixed by addition of acetone/methanol (1:1) mixture in amount of 250 ul/well. In 1 min the cells were washed 3 times with PBS (Phosphate Buffered Saline) solution. Then the cells were blocked by addition of 10% fetal calf serum in PBS solution in amount of 150 ul/well for 1 h at room temperature. Then, the cells were incubated with mouse monoclonal antibodies to cor-antigen HCV, don C7-50 (Source: Affinity BioReagents; Catalogue: MA1-080) (100 ul/well, working dilution 1:500 in 10% fetal calf serum in PBS solution) for 2 h at 37° C. The cells were washed 6 times with PBS/0.05% Tween 20 solution, then, they were incubated for 1 h with goat anti-mouse immunoglobulin antibodies (conjugated with horseradish peroxidase, 100 ul/well, working dilution 1:2500 in 10% fetal calf serum in PBS solution). The cells were washed 6 times with PBS/0.05% Tween 20 solution, once with PBS solution, after that substrate (1 tablet of o-phenylenediamine (oPD)+12 ml citrate/phosphate buffer+5 ul 30% H2O2) in amount of 100 ul/well was added. The plates were kept for 30 min in the dark at room temperature. The reaction was arrested by the addition of 2N H2SO4 in amount of 100 ul/well, and optical density (wavelength 490 nm) was measured by means of multiscan plate reader Victor3 V 1420 (Perkin Elmer). IC50 values (azole concentration, lowering the level of virus RNA-replicon on 50%) for every tested azole were calculated with the help of XLfit 4 program. Format: cell-based.
Settings: not given
On to `COC(=O)N[C@H](C(=O)N1CCC[C@H]1c1nc(C#CC#Cc2ccc(-c3c[nH]c([C@@H]4CCCN4C(=O)[C@@H](NC(=O)OC)C(C)C)n3)cc2)c[nH]1)C(C)C`, for which the pIC50 was 11.40.

Staying with this test, now noted: 4 h.
Take `COC(=O)N[C@H](C(=O)N1CCC[C@H]1c1nc(C#CC#Cc2ccc3cc(-c4c[nH]c([C@@H]5CCCN5C(=O)[C@@H](NC(=O)OC)C(C)C)n4)ccc3c2)c[nH]1)C(C)C`: the pIC50 was 11.44.

Turning to `COC(=O)N[C@@H](C(=O)N1CCC[C@@H]1c1ncc(C#CC#Cc2ccc3cc(-c4cnc([C@H]5CCCN5C(=O)[C@H](NC(=O)OC)C(C)C)[nH]4)ccc3c2)[nH]1)C(C)C`, the negative logarithm of the IC50 (pIC50) is 11.34.

Take `COC(=O)N[C@H](C(=O)N1CCC[C@@H]1c1nc(C#CC#Cc2ccc(-c3c[nH]c([C@@H]4CCCN4C(=O)[C@@H](NC(=O)OC)C(C)C)n3)cc2)c[nH]1)c1ccccc1`: the pIC50 is 11.27.

In the case of `COC(=O)N[C@@H](C(=O)N1CCC[C@H]1c1nc(-c2ccc(C#CC#Cc3c[nH]c([C@H]4CCCN4C(=O)[C@H](NC(=O)OC)C(C)C)n3)cc2)c[nH]1)c1ccccc1`, the pIC50 is 11.09.

For the compound `COC(=O)N[C@H](C(=O)N1CCC[C@H]1c1nc(-c2ccc(C#CC#Cc3c[nH]c([C@H]4CCCN4C(=O)[C@H](NC(=O)OC)C(C)C)n3)cc2)c[nH]1)c1ccccc1`, the negative logarithm of the IC50 (pIC50) was 11.74.
